Assay results as given in US8563714B2, “Bridged spiro [2.4] heptane derivatives as ALX receptor and/or FPRL2 agonists” (Actelion Pharmaceuticals Ltd., priority 2009, dated 2013).

Assays:
[1] = biological target: T1, human FPRL2 (Homo sapiens, UniProt P25089); assay: Intracellular calcium measurements (FLIPR), agonistic activity in HEK293-hFPRL2-Gα16 cells; format: cell-based; details: Fluo-4 calcium FLIPR, normalized to GLY14-Humanin 100 nM
T1 construct: expressed in transfected cells; host or cells: HEK293 (HEK293-hFPRL2-Gα16)
T1 sequence (P25089 1-353): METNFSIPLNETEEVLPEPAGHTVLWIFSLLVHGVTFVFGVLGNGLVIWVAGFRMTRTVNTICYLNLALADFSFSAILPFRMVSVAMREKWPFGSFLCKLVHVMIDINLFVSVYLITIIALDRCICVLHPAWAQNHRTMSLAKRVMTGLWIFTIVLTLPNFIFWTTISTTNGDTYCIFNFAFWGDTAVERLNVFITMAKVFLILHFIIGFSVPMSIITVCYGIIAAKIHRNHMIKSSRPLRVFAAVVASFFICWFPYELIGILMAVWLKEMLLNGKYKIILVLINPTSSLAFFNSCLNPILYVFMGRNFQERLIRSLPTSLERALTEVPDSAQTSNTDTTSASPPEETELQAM
Procedure: (§1) The ALX receptor and FPRL2 agonistic activities of the compounds of formula (I) are determined in accordance with the following experimental method.
(§2) Intracellular Calcium Measurements:
Cells expressing recombinant human FPRL2 and the G-protein Gα16 (HEK293-hFPRL2-Gα16) were grown to 80% confluency in Growing Medium (GM). […] Stock solutions of test compounds were made up at a concentration of 10 mM in DMSO, and serially diluted in AB to concentrations required for activation dose response curves. Gly14-Humanin (Humanin peptide with replacement of Serine by Glycine at position 14, Phoenix Peptides) was used as a reference agonist. FLIPR384 or FLIPR Tetra instruments (Molecular Devices) were operated according to the manufacturer's standard instructions, adding 4 μl of test compound dissolved at 10 mM in DMSO and diluted prior to the experiment in assay buffer to obtain the desired final concentration. Changes in fluorescence were monitored before and after the addition of test compounds at lex=488 nm and lem=540 nm. Emission peak values above base level after compounds addition were exported after base line subtraction. Values were normalized to high-level control (GLY14-Humanin compound, 100 nM final concentration) after subtraction of the base line value (AB addition).

[2] = biological target: T2, human ALX receptor (Homo sapiens, UniProt P25090); assay: Intracellular calcium measurements (FLIPR), agonistic activity in HEK293-hALXR-Gα16 cells; format: cell-based; details: Fluo-4 calcium FLIPR, normalized to WKYMVm 10 nM
T2 construct: expressed in transfected cells; host or cells: HEK293 (HEK293-hALXR-Gα16)
T2 sequence (P25090 1-351): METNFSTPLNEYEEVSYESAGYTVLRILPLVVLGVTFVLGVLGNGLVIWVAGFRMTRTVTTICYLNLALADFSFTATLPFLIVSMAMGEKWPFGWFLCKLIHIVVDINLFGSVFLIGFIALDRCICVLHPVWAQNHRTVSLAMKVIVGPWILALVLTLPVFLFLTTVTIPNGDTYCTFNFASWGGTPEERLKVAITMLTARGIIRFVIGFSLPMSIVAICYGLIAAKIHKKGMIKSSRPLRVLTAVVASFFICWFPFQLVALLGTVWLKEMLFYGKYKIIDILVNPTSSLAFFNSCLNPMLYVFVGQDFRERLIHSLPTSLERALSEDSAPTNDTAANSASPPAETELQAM
Procedure: as §1, §2
Cells expressing recombinant human ALX receptor and the G-protein Gα16 (HEK293-hALXR-Gα16) were grown to 80% confluency in Growing Medium (GM). Cells were detached from culture dishes with a cell dissociation buffer (Invitrogen, 13151-014), and collected by centrifugation at 1,000 rpm at rt for 5 min in Assay Buffer (AB) (equal parts of Hank's BSS (Gibco, 14065-049) and DMEM without Phenol Red (Gibco, 11880-028)). After 60 min incubation at 37° C. under 5% CO2 in AB supplemented with 1 μM Fluo-4 (AM) (Invitrogen, F14202), and 20 mM HEPES (Gibco, 15630-056), the cells were washed and resuspended in AB. They were then seeded onto 384-well FLIPR assay plates (Greiner, 781091) at 50′000 cells in 70 μl per well and sedimented by centrifugation at 1,000 rpm for 1 min. Stock solutions of test compounds were made up at a concentration of 10 mM in DMSO, and serially diluted in AB to concentrations required for activation dose response curves. WKYMVm (Phoenix Peptides) was used as a reference agonist. FLIPR384 or FLIPR Tetra instruments (Molecular Devices) were operated according to the manufacturer's standard instructions, adding 4 μl of test compound dissolved at 10 mM in DMSO and diluted prior to the experiment in assay buffer to obtain the desired final concentration. Changes in fluorescence were monitored before and after the addition of test compounds at lex=488 nm and lem=540 nm. Emission peak values above base level after compounds addition were exported after base line subtraction. Values were normalized to high-level control (WKYMVm compound, 10 nM final concentration) after subtraction of the base line value (AB addition).

CC(C)(C)OC(=O)N1CCCC(CCNC(=O)C2C(C(=O)Nc3ccc(Br)cc3)C3C=CC2C32CC2)C1 (mixture of isomers) [Example 99, (5R*)—N^5-(4-Bromophenyl)-(6R*)—N^6-(2-(N-tert-butoxycarbonyl-piperidin-3-yl)-ethyl)-(4S*,7R*)-[4,7-ethenylene-spiro[2.4]heptane]-5,6-dicarboxamide]
EC50 [1]: 5490 nM
EC50 [2]: 552 nM

O=C(NCC1CCCO1)C1C(C(=O)Nc2ccc(Br)cc2)C2CCC1C21CC1 (mixture of isomers) [Example 104, (5R*)—N^5-(4-Bromophenyl)-(6R*)—N^6-(tetrahydrofuran-2-yl-methyl)-(4S*,7R*)-[4,7-ethylene-spiro[2.4]heptane]-5,6-dicarboxamide]
EC50 [1]: 5250 nM
EC50 [2]: 1.5 nM

CC1CCC(NC(=O)C2C(C(=O)NCCCCN3CCCC3)C3C=CC2C32CC2)CC1 (mixture of isomers) [Example 126, (5R*)—N^5-(4-Methyl-cyclohex-1-yl)-(6R*)—N^6-(4-pyrrolidin-1-yl-butyl)-(4S*,7R*)-[4,7-ethenylene-spiro[2.4]heptane]-5,6-dicarboxamide]
EC50 [1]: 613 nM
EC50 [2]: 71 nM

CC(NC(=O)C1C(C(=O)NCCCCN2CCCC2)C2C=CC1C21CC1)c1ccc(Br)cc1 (mixture of isomers) [Example 132, (5R*)—N^5-(1-(4-Bromophenyl)-ethyl)-(6R*)—N^6-(4-pyrrolidin-1-yl-butyl)-(4S*,7R*)-[4,7-ethenylene-spiro[2.4]heptane]-5,6-dicarboxamide]
EC50 [1]: 79 nM
EC50 [2]: 898 nM

CC1(C(=O)NCC2C(C(=O)Nc3ccc(Br)cc3)C3C=CC2C32CC2)CC1(Cl)Cl (mixture of isomers) [Example 165, (5R*)—N^5-(4-Bromo-phenyl)-(6R*)-6-{[(2,2-dichloro-1-methyl-cyclopropylcarbonyl)-amino]-methyl}-(4S*,7R*)-[4,7-ethenylene-spiro[2.4]heptane]-5-carboxamide]
EC50 [1]: 2600 nM
EC50 [2]: 87 nM

O=C(NC1CCNCC1)[C@H]1[C@H](C(=O)Nc2ccc(Br)cc2)[C@@H]2C=C[C@H]1C21CC1 (racemic) [Example 3, (5R*)—N^5-(4-Bromophenyl)-(6R*)—N^6-(piperidin-4-yl)-(4S*,7R*)-[4,7-ethenylene-spiro[2.4]heptane]-5,6-dicarboxamide]
EC50 [1]: 2000 nM
EC50 [2]: 0.2 nM

CC(C)CNC(=O)[C@H]1[C@H](C(=O)Nc2ccc(Br)cc2)[C@@H]2C=C[C@H]1C21CC1 (racemic) [Example 4, (5R*)—N^5-(4-Bromophenyl)-(6R*)—N^6-(3-isobutyl)-(4S*,7R*)-[4,7-ethenylene-spiro[2.4]heptane]-5,6-dicarboxamide]
EC50 [1]: 5310 nM
EC50 [2]: 0.24 nM

NCc1cccc(CNC(=O)[C@H]2[C@H](C(=O)Nc3ccc(Br)cc3)[C@@H]3C=C[C@H]2C32CC2)c1 (racemic) [Example 7, (5R*)—N^5-(4-Bromophenyl)-(6R*)—N^6-((3-aminomethyl-phenyl)-methyl)-(4S*,7R*)-[4,7-ethenylene-spiro[2.4]heptane]-5,6-dicarboxamide]
EC50 [1]: 413 nM
EC50 [2]: 0.55 nM

O=C(NCC1CCNCC1)[C@H]1[C@H](C(=O)Nc2ccc(Br)cc2)[C@@H]2C=C[C@H]1C21CC1 (racemic) [Example 8, (5R*)—N^5-(4-Bromophenyl)-(6R*)—N^6-(4-piperidinyl-methyl)-(4S*,7R*)-[4,7-ethenylene-spiro[2.4]heptane]-5,6-dicarboxamide]
EC50 [1]: 2600 nM
EC50 [2]: 0.82 nM

CC(C)(CN)CNC(=O)[C@H]1[C@H](C(=O)Nc2ccc(Br)cc2)[C@@H]2C=C[C@H]1C21CC1 (racemic) [Example 10, (5R*)—N^5-(4-Bromophenyl)-(6R*)—N^6-(2,2-dimethyl-3-amino-propyl)-(4S*,7R*)-[4,7-ethenylene-spiro[2.4]heptane]-5,6-dicarboxamide]
EC50 [1]: 726 nM
EC50 [2]: 0.98 nM
